Test results as given in ChEMBL document CHEMBL4321834, “Glechomanamides A-C, Germacrane Sesquiterpenoids with an Unusual Δ8-7,12-Lactam Moiety from Salvia scapiformis and Their Antiangiogenic Activity” (J Nat Prod, 2019).
Active and inactive are the calls of the source. The calls are words filed in the database; no cut-off is given here.

How the values were obtained:
[1] = biological target: Vascular endothelial growth factor receptor 2 (Homo sapiens) (UniProt P35968); assay: Inhibition of VEGFR2 in HUVEC assessed as inhibition of VEGF-induced tube formation incubated for 8 hrs by inverted microscopic method; assay type: cell-based
[2] = biological target: Vascular endothelial growth factor receptor 2 (Homo sapiens) (UniProt P35968); assay: Inhibition of VEGF-induced VEGFR2 phosphorylation in HUVEC at 1 to 100 uM preincubated for 30 mins followed by stimulation with VEGF for 20 mins by Western blot analysis; assay type: cell-based
[3] = tested on: HUVEC; assay: Decrease in total VEGF expression in HUVEC at 1 to 100 uM preincubated for 30 mins followed by incubation with VEGF for 20 mins by Western blot analysis; assay type: functional, cell-based; conditions: Homo sapiens
[4] = tested on: HUVEC; assay: Decrease in D-glucose-induced ANGPT2 mRNA expression in HUVEC at 10 uM incubated for 48 hrs in presence of […] by real time-PCR analysis; assay type: functional, cell-based; conditions: Homo sapiens
[5] = tested on: HUVEC; assay: Decrease in D-glucose-induced BMP4 mRNA expression in HUVEC at 10 uM incubated for 48 hrs in presence of […] by real time-PCR analysis; assay type: functional, cell-based; conditions: Homo sapiens
[6] = biological target: Vascular endothelial growth factor receptor 2 (Homo sapiens) (UniProt P35968); assay: Inhibition of VEGFR2 in HUVEC assessed as inhibition of VEGF-induced tube formation at 80 uM incubated for 8 hrs by inverted microscopic method; assay type: cell-based
[7] = tested on: HUVEC; assay: Decrease in BMP4 expression in HUVEC at 1 to 100 uM preincubated for 30 mins followed by incubation with VEGF for 20 mins by Western blot analysis; assay type: functional, cell-based; conditions: Homo sapiens
[8] = tested on: HUVEC; assay: Decrease in GLUT1 expression in HUVEC at 1 to 100 uM preincubated for 30 mins followed by incubation with VEGF for 20 mins by Western blot analysis; assay type: functional, cell-based; conditions: Homo sapiens
[9] = tested on: HUVEC; assay: Decrease in HK2 expression in HUVEC at 1 to 100 uM preincubated for 30 mins followed by incubation with VEGF for 20 mins by Western blot analysis; assay type: functional, cell-based; conditions: Homo sapiens
[10] = tested on: HUVEC; assay: Decrease in D-glucose-induced ANGPT2 mRNA expression in HUVEC at 500 uM incubated for 48 hrs in presence of […] by real time-PCR analysis; assay type: functional, cell-based; conditions: Homo sapiens
[11] = tested on: HUVEC; assay: Decrease in D-glucose-induced BMP4 mRNA expression in HUVEC at 500 uM incubated for 48 hrs in presence of […] by real time-PCR analysis; assay type: functional, cell-based; conditions: Homo sapiens

Vascular endothelial growth factor receptor 2 (Homo sapiens), sequence (P35968 whole entry): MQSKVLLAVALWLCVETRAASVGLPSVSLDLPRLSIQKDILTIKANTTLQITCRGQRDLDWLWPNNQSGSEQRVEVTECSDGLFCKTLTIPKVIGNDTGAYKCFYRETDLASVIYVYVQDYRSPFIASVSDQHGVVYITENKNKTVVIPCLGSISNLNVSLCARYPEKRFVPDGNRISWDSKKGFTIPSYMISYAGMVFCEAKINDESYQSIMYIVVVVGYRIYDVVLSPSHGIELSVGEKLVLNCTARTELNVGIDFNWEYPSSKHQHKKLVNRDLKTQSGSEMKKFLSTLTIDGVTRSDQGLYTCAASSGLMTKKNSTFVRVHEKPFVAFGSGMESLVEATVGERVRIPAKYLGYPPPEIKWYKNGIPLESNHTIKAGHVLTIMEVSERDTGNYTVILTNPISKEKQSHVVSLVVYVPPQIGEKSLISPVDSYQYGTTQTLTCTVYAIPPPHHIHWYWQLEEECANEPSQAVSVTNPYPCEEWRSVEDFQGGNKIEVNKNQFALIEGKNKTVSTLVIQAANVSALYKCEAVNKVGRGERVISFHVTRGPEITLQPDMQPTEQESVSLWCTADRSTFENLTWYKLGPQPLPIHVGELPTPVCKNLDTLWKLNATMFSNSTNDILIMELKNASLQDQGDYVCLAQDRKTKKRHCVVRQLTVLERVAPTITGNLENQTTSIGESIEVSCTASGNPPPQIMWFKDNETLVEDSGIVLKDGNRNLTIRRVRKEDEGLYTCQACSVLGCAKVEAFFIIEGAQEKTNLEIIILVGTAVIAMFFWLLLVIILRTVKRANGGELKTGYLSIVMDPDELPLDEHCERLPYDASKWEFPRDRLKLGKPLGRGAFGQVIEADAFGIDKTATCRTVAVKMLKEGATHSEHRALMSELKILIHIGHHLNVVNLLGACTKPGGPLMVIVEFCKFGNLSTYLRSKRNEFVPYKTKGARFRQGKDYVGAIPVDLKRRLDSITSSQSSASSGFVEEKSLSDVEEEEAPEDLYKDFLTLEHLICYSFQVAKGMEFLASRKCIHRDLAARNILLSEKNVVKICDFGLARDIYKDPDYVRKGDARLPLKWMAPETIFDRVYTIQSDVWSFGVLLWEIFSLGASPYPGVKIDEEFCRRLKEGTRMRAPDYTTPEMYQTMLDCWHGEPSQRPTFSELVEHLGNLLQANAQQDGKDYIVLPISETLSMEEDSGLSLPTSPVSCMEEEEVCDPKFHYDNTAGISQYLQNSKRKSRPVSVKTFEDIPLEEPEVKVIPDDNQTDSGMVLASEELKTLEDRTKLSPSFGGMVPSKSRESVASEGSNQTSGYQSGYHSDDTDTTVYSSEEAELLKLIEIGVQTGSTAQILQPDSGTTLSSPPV

| inhibition [1] | inhibition [2] | inhibition [6] | SMILES | inhibition [3] | inhibition [4] | inhibition [5] | inhibition [7] | inhibition [8] | inhibition [9] | inhibition [10] | inhibition [11] |
| --- | --- | --- | --- | --- | --- | --- | --- | --- | --- | --- | --- |
| Dose-dependent effect | Active | Active | C/C=C(\C)C(=O)O[C@@H]1C2=C(C)C(=O)N[C@]2(O)C[C@@]2(C)O[C@@H]2CC[C@@]2(C)O[C@H]12 | Active | Active | Active | Active | Active | Active |  |  |
|  |  |  | CN(C)C(=N)NC(=N)N |  |  |  |  |  |  | Active | Active |
